According to patent US7647217B2, “Structure of the farnesoid X receptor ligand binding domain and methods of use therefor” (The Salk Institute for Biological Studies, priority 2002, dated 2010):

Key:
Experiment in all cases: GAL4 chimeric NHR cross-reactivity assay
Format in all cases: cell-based
Details in all cases: 10 μM
hRARβ = molecular target: T1, hRARβ (Homo sapiens, UniProt P10826)
T1 construct: expressed in transfected cells; host or cells: CV-1 (monkey)
T1 sequence (P10826 183-417 limits assumed): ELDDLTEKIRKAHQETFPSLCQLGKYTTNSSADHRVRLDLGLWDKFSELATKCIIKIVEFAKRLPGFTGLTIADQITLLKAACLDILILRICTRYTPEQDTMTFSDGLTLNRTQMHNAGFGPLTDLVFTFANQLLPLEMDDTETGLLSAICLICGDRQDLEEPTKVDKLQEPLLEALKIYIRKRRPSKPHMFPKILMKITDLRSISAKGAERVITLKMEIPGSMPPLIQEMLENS
Procedure: (§1) FIGS. 3A-3E collectively show the results of ligand activation of CV-1 cells co-transfected with a luciferase reporter gene with a variety of receptor expression constructs. […] FIGS. 3C-3E show the results of CV-1 cells transiently transfected with the indicated reporter constructs, treated with either DMSO or 10 μM of the compounds fexaramine (3C), fexarine (3D), fexarene (3E). Reporter activity was normalized to the internal control and the data plotted as fold activation relative to untreated cells. All transfections contained CMX-βgal as an internal control.
(§2) The expression plasmids pCMX, pCMX-LacZ, pCMX-mFXRFL, pCMX-hRXRFL, pCMX-GALDBD-rFXRLBD and other pCUX-GALDBD-NR LBDs (hRXRα, hPPARαγδ, mPXR, hPXR, hLXRα, HTRβ, hRARβ, mCAR, mERR3 and hVDR) have been described elsewhere (Blumberg et al. (1998). SXR, a novel steroid and xenobiotic-sensing nuclear receptor. Genes Dev. 12(20), 3195-205). The reporter plasmids pMH2004-TK-luc, pTKECRE*6-luc, pTKER-8*2-luc and pMRP-2-luc also have been described elsewhere. The hPLTP-luc promoter was kindly provided by Dr Dennis Dowhan and the hIBABP-luc promoter was created from a plasmid provided by Dr Philippe Besnard.
(§3) Cell-based transcriptional activation assays using chimeric nuclear hormone receptor (NHR) constructs were established to measure the selectivity of the compounds to FXR relative to other NHRs (Forman et al. (1995). Identification of a nuclear receptor that is activated by farnesol metabolites. Cell 81, 687-693). These assays used fusion proteins with the yeast GAL4 DNA binding domain connected to the ligand-binding domain (LBD) of NHRs. These constructs were co-transfected with a thymidine kinase C minimal promoter reporter vector containing four copies of the GAL4 binding site. Titration experiments were then performed using the identified compounds. […] Addition of RXR had no effect on the activation potential of fexaramine, fexarine, fexarene in this assay.
(§4) No activity was observed on other chimeric NHR constructs including hRXRα, hPPARαγδ, mPXR, hPXR, hLXRα, hTRβ, hRARβ, mCAR, mERR3 and hVDR (see FIGS. 3C-3E).

hRXRα = molecular target: T2, hRXRα (Homo sapiens, UniProt P19793)
T2 construct: expressed in transfected cells; host or cells: CV-1 (monkey)
T2 sequence (P19793 227-458 limits assumed): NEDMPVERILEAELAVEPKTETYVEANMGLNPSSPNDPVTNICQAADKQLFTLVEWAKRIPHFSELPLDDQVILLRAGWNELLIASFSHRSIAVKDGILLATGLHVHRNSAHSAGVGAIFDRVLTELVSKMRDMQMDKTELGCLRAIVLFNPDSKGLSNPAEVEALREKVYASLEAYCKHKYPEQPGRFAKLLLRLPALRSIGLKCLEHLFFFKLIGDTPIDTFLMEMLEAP
Procedure: as §1, §2, §3, §4

hTRβ = molecular target: T3, hTRβ (Homo sapiens, UniProt P10828)
T3 construct: expressed in transfected cells; host or cells: CV-1 (monkey)
T3 sequence (P10828 217-461 limits assumed): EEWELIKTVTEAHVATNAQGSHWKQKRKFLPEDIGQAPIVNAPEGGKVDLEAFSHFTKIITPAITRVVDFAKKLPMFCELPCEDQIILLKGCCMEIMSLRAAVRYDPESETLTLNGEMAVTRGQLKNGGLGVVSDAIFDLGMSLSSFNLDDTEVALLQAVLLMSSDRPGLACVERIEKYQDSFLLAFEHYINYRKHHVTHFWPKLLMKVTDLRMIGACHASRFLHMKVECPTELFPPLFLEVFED
Procedure: as §1, §2, §3, §4

hVDR = molecular target: T4, hVDR (Homo sapiens, UniProt P11473)
T4 construct: expressed in transfected cells; host or cells: CV-1 (monkey)
T4 sequence (P11473 127-423 limits assumed): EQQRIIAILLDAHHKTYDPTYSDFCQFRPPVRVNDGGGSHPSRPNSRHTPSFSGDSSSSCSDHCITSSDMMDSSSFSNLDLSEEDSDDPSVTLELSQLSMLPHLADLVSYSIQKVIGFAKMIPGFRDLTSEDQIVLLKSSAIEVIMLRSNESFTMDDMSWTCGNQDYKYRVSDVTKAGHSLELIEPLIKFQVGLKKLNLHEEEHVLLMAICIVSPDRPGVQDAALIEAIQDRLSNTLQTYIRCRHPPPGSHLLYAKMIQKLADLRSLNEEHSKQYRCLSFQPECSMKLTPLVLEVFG
Procedure: as §1, §2, §3, §4

mCAR = molecular target: T5, mCAR (Mus musculus, UniProt O35627)
T5 construct: expressed in transfected cells; host or cells: CV-1 (monkey)
T5 sequence (O35627 119-358 limits assumed): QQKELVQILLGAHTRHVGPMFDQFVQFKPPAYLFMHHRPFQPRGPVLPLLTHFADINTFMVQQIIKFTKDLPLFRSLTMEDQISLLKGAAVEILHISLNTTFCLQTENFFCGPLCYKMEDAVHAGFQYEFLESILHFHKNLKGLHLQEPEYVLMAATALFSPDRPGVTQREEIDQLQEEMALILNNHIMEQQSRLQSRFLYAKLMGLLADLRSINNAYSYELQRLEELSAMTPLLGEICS
Procedure: as §1, §2, §3, §4

mERR3 = molecular target: T6, mERR3 (Mus musculus, UniProt P62509)
T6 construct: expressed in transfected cells; host or cells: CV-1 (monkey)
T6 sequence (P62509 233-457 limits assumed): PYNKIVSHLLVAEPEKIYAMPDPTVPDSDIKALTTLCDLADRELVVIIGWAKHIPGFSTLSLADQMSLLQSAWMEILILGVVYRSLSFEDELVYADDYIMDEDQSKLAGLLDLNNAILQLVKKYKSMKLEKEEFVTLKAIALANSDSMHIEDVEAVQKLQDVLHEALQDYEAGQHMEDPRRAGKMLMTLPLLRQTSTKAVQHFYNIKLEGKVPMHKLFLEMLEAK
Procedure: as §1, §2, §3, §4

mPXR = molecular target: T7, mPXR (Mus musculus, UniProt O54915)
T7 construct: expressed in transfected cells; host or cells: CV-1 (monkey)
T7 sequence (O54915 143-430 limits assumed): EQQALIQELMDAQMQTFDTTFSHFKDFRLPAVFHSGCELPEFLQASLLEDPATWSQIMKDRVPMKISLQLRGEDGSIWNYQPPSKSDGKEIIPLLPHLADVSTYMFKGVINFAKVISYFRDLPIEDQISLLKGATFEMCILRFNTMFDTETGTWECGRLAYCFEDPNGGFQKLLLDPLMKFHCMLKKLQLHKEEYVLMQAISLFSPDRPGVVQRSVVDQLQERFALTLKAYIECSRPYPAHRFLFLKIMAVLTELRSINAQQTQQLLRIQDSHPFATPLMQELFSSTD
Procedure: as §1, §2, §3, §4

COC(=O)/C=C/c1cccc(N(Cc2ccc(-c3ccc(N(C)C)cc3)cc2)C(=O)C2CCCCC2)c1 [fexaramine]
No activity: activity on chimeric hRARβ construct (hRARβ) | activity on chimeric hRXRα construct (hRXRα) | activity on chimeric hTRβ construct (hTRβ) | activity on chimeric hVDR construct (hVDR) | activity on chimeric mCAR construct (mCAR) | activity on chimeric mERR3 construct (mERR3) | activity on chimeric mPXR construct (mPXR)

COC(=O)/C=C/c1cccc(N(Cc2ccc(/C=C/c3ccccc3)cc2)C(=O)C2CCCCC2)c1 [fexarene]
No activity: activity on chimeric hRARβ construct (hRARβ) | activity on chimeric hRXRα construct (hRXRα) | activity on chimeric hTRβ construct (hTRβ) | activity on chimeric hVDR construct (hVDR) | activity on chimeric mCAR construct (mCAR) | activity on chimeric mERR3 construct (mERR3) | activity on chimeric mPXR construct (mPXR)

COC(=O)/C=C/c1cccc(N(Cc2ccc(-c3ccc4c(c3)OCO4)cc2)C(=O)C2CCCCC2)c1 [fexarine]
No activity: activity on chimeric hRARβ construct (hRARβ) | activity on chimeric hRXRα construct (hRXRα) | activity on chimeric hTRβ construct (hTRβ) | activity on chimeric hVDR construct (hVDR) | activity on chimeric mCAR construct (mCAR) | activity on chimeric mERR3 construct (mERR3) | activity on chimeric mPXR construct (mPXR)
